Test [1] concerns cocktail mAbs of 10E6 and 9C9. Put plainly: Nonspecific binding analysis with cocktail mAbs. Conditions: λex/λem 480/535 nm, working concentration. Here is the method:
The detection system of DWFPIA consists of two distinct fluorescence signals; moreover, the interference between the short-wavelength fluorescein (EDF/BDF/HDF) and the long-wavelength fluorescein (DSCA/DSCH/AF647) could be ignored, according to our previous studies. Furthermore, the nonspecific binding was analyzed by comparing the FP changes of each tracer (or the tracer cocktail) upon the addition of the free, specific, non-specific, and cocktail mAbs at working concentrations. […] At 620 nm/688 nm, the binding of the tracer HaptenA-DSCA and its corresponding antibody mAb 9C9 was not affected by the presence of non-specific mAb 10E6, as shown in Figure 3A.

Test [2] has as its system mAb 10E6. Put plainly: FPIA tracer-antibody binding, antibody dilution and SMZ competition with mAb 10E6. Particulars: λex/λem 480/535 nm, working concentration. How it is done:
For single format FPIA, 70 μL/well of a standard analyte solution, 70 μL/well of tracer, and 70 μL/well mAb were added to the 96-well low-adsorption microplate. After incubation for 2 min in the dark, FP values were measured at λex 480 nm and λem 535 nm for the SAs tracers (SADMPM-EDF, SADMPM-BDF, and SADMPM-HDF) or at λex 620 nm and λem 688 nm for the ASGs tracers (HaptenA-DSCA, HaptenA-DSCH, and HaptenA-AF647). For DWFPIA detection, 70 μL/well standard cocktail solutions were mixed with 70 μL/well of tracer cocktail solutions in the working dilution and 70 μL/well of mAb cocktail solutions in the working dilution. […]
In DWFPIA, we mainly focused on three analytical parameters to select the optimum antibody–tracer pairs, including the half-maximal inhibitory concentration (IC50), the detection window (δmP = mPmax − mPmin), and the titer of the mAbs. […] The IC50 of DWFPIA based on the antibody–tracer pairs was assessed according to standard curves, as described in Section 2.3.3. δmP was the difference between the observed maximum FP value of the tracer bound to a saturating amount of antibody (mPmax) and the observed minimum FP value of the free tracer (mPmin). […] In addition, the binding abilities of the tracers and mAbs were assessed. […] According to the antibody dilution curve, the titer of the mAbs utilized for each tracer that satisfied the δmP criterion was calculated. […]

Test [3] relates to mAb 10E6. Put plainly: DWFPIA for SAs (tracer SADMPM-HDF, λex 480 nm/λem 535 nm). The class given is binding. Particulars: for IC50: 480 nm/535 nm. Here is the method:
(§1) For single format FPIA, 70 μL/well of a standard analyte solution, 70 μL/well of tracer, and 70 μL/well mAb were added to the 96-well low-adsorption microplate. After incubation for 2 min in the dark, FP values were measured at λex 480 nm and λem 535 nm for the SAs tracers (SADMPM-EDF, SADMPM-BDF, and SADMPM-HDF) or at λex 620 nm and λem 688 nm for the ASGs tracers (HaptenA-DSCA, HaptenA-DSCH, and HaptenA-AF647). For DWFPIA detection, 70 μL/well standard cocktail solutions were mixed with 70 μL/well of tracer cocktail solutions in the working dilution and 70 μL/well of mAb cocktail solutions in the working dilution. After incubation for 2 min in the dark, the corresponding signals of the tracers were collected simultaneously.
(§2) The procedure to develop the standard curves of DWFPIA for the simultaneous detection of SMZ and TMP was follows: the standard cocktail solutions were prepared by mixing an equal quantity of the standard of SMZ and TMP. Subsequently, the optimum two tracers for each mAbs were added with equal volumes, and then mixed with the two mAbs against SMZ and TMP. The other steps followed the above protocol for FPIA. […] Y = (A − D)/[1 + (X/C) ^B] + D(1) where Y represents the FP value for the corresponding different concentrations of the standard (analyte); A and D represent the asymptotic maximum and minimum of the FP values, respectively; and B is the slope of the curve at the inflection point. C is the IC50 value that defines the standard concentration of SMZ or TMP (analyte) at 50% tracer binding, and X is SMZ/TMP in various concentrations. Furthermore, IC20–IC80 was calculated as the detectable range of the DWFPIA. According to the following equation, the cross reactivity (CR) of the DWFPIA was acquired as follows:CR= (IC50 of SMZ or TMP)/(IC50 of analyte compound) × 100%(2)
(§3) To obtain a sensitive FPIA, the effects of some physicochemical conditions on DWFPIA were evaluated by comparing the δmP/IC50 ratios under various conditions, including pH and organic solvents. Based on the optimal antibody–tracer pairs, pH values of 6.0, 7.0, 8.0, and 9.0 were tested and the other parameters of the assay remain unchanged. To clarify the effects of organic solvents on the development of DWFPIA, various concentrations of methanol and acetonitrile were tested, that is, 0%, 2.5%, 5%, 10%, 20%, and 30% (v/v) for methanol and 0%, 2.5%, 5%, 10%, and 20% (v/v) for acetonitrile. SMZ and TMP were used as the reference analyte in DWFPIA optimization to construct standard curves, seperately.

Another test relates to mAb 9C9. In words: DWFPIA for ASGs (tracer HaptenA-DSCA, λex 620 nm/λem 688 nm). The class given is binding. How it is done: as §1, §2, §3
Where [4] appears, read: final concentration of 10% acetonitrile.

Structures are written as SMILES. In brackets after ≈: the same amount, converted by molar mass.

As usually defined, the IC50 is the concentration at which inhibition is half-maximal. Lower therefore signals greater potency.

Consider `Cc1nc(NS(=O)(=O)c2ccc(N)cc2)nc(C)c1CCCCC(=O)NCCCCCCNC(=S)Nc1ccc2c(c1)C(=O)OC21c2ccc(O)cc2Oc2cc(O)ccc21` [SADMPM-HDF], for which the “Fluorescence Polarization, tracer and cocktail mAbs” value in test [1] is on record as 178.8 mP. Moreover, in the test on mAb 10E6 [2], the “Fluorescence Polarization, tracer and mAb 10E6” value is reported as 178.6 mP.
On to `Cc1cc(C)nc(NS(=O)(=O)c2ccc(N)cc2)n1` [SMZ, Sulfamethazine], for which the δmP in the test on mAb 10E6 [3] (10% final acetonitrile concentration) was < 80 mP. Further, the IC50 with mAb 10E6 [3] (analyte in mixed format (standard cocktail)) came out at 4.67 ng/mL (≈ 16.8 nM); with mAb 10E6 [3] (analyte in single format, tracer and mAb cocktail), 4.55 ng/mL (≈ 16.3 nM). Also, the CRs in the test with mAb 10E6 [3] (cross reactivity = IC50 of SMZ / IC50 of analyte × 100%) turned out to be 100%.
As for `COc1cc(Cc2cnc(N)nc2N)cc(OC)c1OC` [TMP, Trimethoprim], the IC50 in the test on mAb 9C9 (analyte in mixed format (standard cocktail), 620 nm/688 nm) is 1.12 ng/mL (≈ 3.86 nM); with mAb 9C9 (analyte in single format, tracer and mAb cocktail, 620 nm/688 nm), 1.06 ng/mL (≈ 3.65 nM); in the test with mAb 9C9 (setting [4]), 1.7 ng/mL (≈ 5.86 nM); in the test on mAb 9C9 (without acetonitrile (start of the change)), 1.1 ng/mL (≈ 3.79 nM). This molecule yielded a CRs in the test with mAb 9C9 (cross reactivity = IC50 of TMP / IC50 of analyte × 100%) of 100%. Moreover, the δmP result in the test with mAb 9C9 (setting [4]) is given as “greater than 80 mP”.

The values above are taken from paper PMC9688798, “Dual-Wavelength Fluorescence Polarization Immunoassay for Simultaneous Detection of Sulfonamides and Antibacterial Synergists in Milk” (Biosensors, 2022).
